Legend:
[1] = system: JA 657 chicks; test: Chick sleep/sedation test (IM injection, 90 minute observation); type: in vivo; conditions: for Sed (sedation time as % of the period) / TA (time to torpor between injection and first stage of sleep) / TS (duration of the first sleep) / Tsed (total sedation time over the period): 90 min observation; for TS (mins) Placebo diff'ce: extension of first sleep compared with test controls
Experimental: (§1) The dihydroimidazo[5,1-a]-β-carboline derivatives of the invention, in particular those in the form of the methyl sulfonate, (soluble), were tested in chicks, and certain compounds that were active in the chick were administered in single doses to six Beagle dogs of both sexes for a polysomnographic study of at least 4 hours duration.
JA 657 chicks from Couvoir Gauguet, 44 Le Pin, were accustomed for at least 6 days to an alternating program of light and darkness with 12 hours of daylight and 12 hours of darkness at a regulated temperature of 25±2° C. They were fed ad libitum and were placed under test compounds in a vivarium in groups of 3 individuals with a mean weight of 100±10 g on the day of the test. At that age in this species, there is no effective meningeal (hemato-encephalic) barrier. The test products were injected in 3 doses (1, 3 and 10 mg/kg) intramuscularly (IM) in solution or in an aqueous suspension (1 drop of Tween 80 per ml), each to two batches of 3 chicks which were observed over 90 minutes. For each test series (18 vivaria), there was at least one batch of negative control chicks receiving the same volume (0.2 ml IM) of water for injectable preparations.
During the 90 minute observation period, the chicks were strongly stimulated every 15 minutes by presenting a full feeding trough, and each 5 minute period was given a grade from among the following 5 states, corresponding to the state of alertness over that period:
Mobile, sitting alert, drowsy, asleep, sleep-like state. The parameters studied were the time to torpor (TA) passed between injection and the first stage of sleep, the duration of the first sleep (TS) and the total sedation time over the period (Tsed), expressed in minutes and as a % of the period (Sed).
To compare the results of tests carried out at different dates, the extension of the duration of the first sleep TS compared with the test controls was recorded.

[2] = system: Beagle dogs; test: Polysomnographic study in the dog (EEG, 4 hours after oral gelule); type: in vivo; conditions: oral gelule; for Time passed at stage: Alertness / Time passed at stage: REM / Time passed at stage: SWS / Time passed at stage: Somnolence: four hours of monitoring
Experimental: as §1
Polysomnographic tests were carried out for each of the three products from the series, on 6 dogs of both sexes, adults from the certified breeding kennels at HARLAN, 03 Gannat, using stainless steel electrodes surgically implanted for the duration of the test in contact with the frontal bones through the sinus, facing the motor regions of the encephalus. The Nishino et al method adapted by Tafani, Valin et al has been described elsewhere. It comprised recording two traces for eye movements, one trace for muscular movements (concentric electrode in the nape muscles) and two electroencephalographic (EEG) traces. The digital EEG trace was recorded using a Nicollet Schwarzer polygraph or the like (DELTAMED Coherence 2 and 3, MEI Galileo NT) for 4 hours after administering a 00 gelule containing 0, 16 or 48 mg of the test product (i.e. a mean of 0,1 and 3 mg/kg of live weight).
Each dog was monitored for 4 hours twice a day over two days, morning and afternoon, after one week's acclimatization to the monitoring cage, a 1 m^2, 80 cm high stainless steel cage of the SHOR-LINE type. For each dog, monitoring always commenced at the same time. A meal was distributed 30 minutes before starting monitoring.
The polysomnographic traces could differentiate between at least 4 stages for each consecutive 30 second period: awake, somnolence, slow sleep and paradoxal sleep. The latency of the appearance of each of the first nonalert episodes and the duration of each of the stages per 2 hour period were recorded for each dog. Comparing the means allowed the effect of the test products on the sleep microstructure to be studied.

SMILES	Sed (sedation time as % of the period) ([1]; Dose: 1 mg/kg) [%]	TA (time to torpor between injection and first stage of sleep) ([1]; Dose: 1 mg/kg) [min]	TS (duration of the first sleep) ([1]; Dose: 1 mg/kg) [min]	Tsed (total sedation time over the period) ([1]; Dose: 1 mg/kg) [min]	TS (mins) Placebo diff'ce ([1]; Dose: 1 mg/kg) [min]	Sed (sedation time as % of the period) ([1]; Dose: 3 mg/kg) [%]	TA (time to torpor between injection and first stage of sleep) ([1]; Dose: 3 mg/kg) [min]	TS (duration of the first sleep) ([1]; Dose: 3 mg/kg) [min]	Tsed (total sedation time over the period) ([1]; Dose: 3 mg/kg) [min]	TS (mins) Placebo diff'ce ([1]; Dose: 3 mg/kg) [min]	Sed (sedation time as % of the period) ([1]; Dose: 10 mg/kg) [%]	TA (time to torpor between injection and first stage of sleep) ([1]; Dose: 10 mg/kg) [min]	TS (duration of the first sleep) ([1]; Dose: 10 mg/kg) [min]	Tsed (total sedation time over the period) ([1]; Dose: 10 mg/kg) [min]	TS (mins) Placebo diff'ce ([1]; Dose: 10 mg/kg) [min]	Latency: Paradoxal (REM) sleep ([2]; 1 mg) [min]	Latency: Slow wave sleep (SWS) ([2]; 1 mg) [min]	Latency: Somnolence ([2]; 1 mg) [min]	Time passed at stage: Alertness ([2]; 1 mg) [min]	Time passed at stage: REM ([2]; 1 mg) [min]	other results
CS(=O)(=O)O.Cc1ncc2n1CCc1c-2[nH]c2ccc(Cl)cc12 [Example 13, 8-chloro-3-methyl-5,6-dihydroimidazo[5,1-a]-β-carboline methane sulfonate]	57.8	16.5	33.5	52	33	81.1	9.5	73	73	73	95.6	4	86	86	85.7	63 ± 28.2	32 ± 11.5	25 ± 11.6	135 ± 44.3	21 ± 13.6	Time passed at stage: SWS ([2]; 1 mg): 57 ± 26.5 min; Time passed at stage: Somnolence ([2]; 1 mg): 24 ± 2.6 min; Latency: Paradoxal (REM) sleep ([2]; 3 mg): 56 ± 19.5 min; Latency: Slow wave sleep (SWS) ([2]; 3 mg): 35 ± 11 min; Latency: Somnolence ([2]; 3 mg): 27 ± 9.1 min; Time passed at stage: Alertness ([2]; 3 mg): 122 ± 36.5 min; Time passed at stage: REM ([2]; 3 mg): 26 ± 13.5 min; Time passed at stage: SWS ([2]; 3 mg): 61 ± 24.9 min; Time passed at stage: Somnolence ([2]; 3 mg): 31 ± 7 min
COc1ccc2[nH]c3c(c2c1)CCn1c-3cnc1C.CS(=O)(=O)O [Example 2, 8-methoxy-3-methyl-5,6-dihydroimidazo[5,1-a]-β-carboline methane sulfonate]	27.8	16	3	25	3	69.4	8.5	41	62.5	41	92.2	7	83	83	83	114 ± 53	44 ± 16.3	40 ± 14.7	136 ± 40.3	13.5 ± 10.6	Time passed at stage: SWS ([2]; 1 mg): 59 ± 20.5 min; Time passed at stage: Somnolence ([2]; 1 mg): 31 ± 4.6 min; Latency: Paradoxal (REM) sleep ([2]; 3 mg): 63 ± 21.1 min; Latency: Slow wave sleep (SWS) ([2]; 3 mg): 45 ± 5.4 min; Latency: Somnolence ([2]; 3 mg): 37 ± 6.7 min; Time passed at stage: Alertness ([2]; 3 mg): 123 ± 30.5 min; Time passed at stage: REM ([2]; 3 mg): 20 ± 9.5 min; Time passed at stage: SWS ([2]; 3 mg): 60 ± 26.9 min; Time passed at stage: Somnolence ([2]; 3 mg): 36 ± 15.4 min

Source: US7291627B2, “Dihydroimidazo[5.1-a]-beta-carboline derivatives, method for their preparation, and their application as a drug” (MACEF, priority 2001, dated 2007)
